According to PubChem BioAssay (NCI):
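Test compounds were applied to cells in 96-well plates for 48 hours at 5 doses. Definition used: TGI = concentration required for complete inhibition of growth.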

Legend:
Assay in all cases: inhibition of tumour cell growth, NCI panel, 48 h
[1] = system: NCI-H23 lung
[2] = system: SNB-19 CNS
[3] = system: SK-MEL-2 melanoma
[4] = system: PC-3 prostate
[5] = system: OVCAR-3 ovarian
[6] = system: LOX IMVI melanoma
[7] = system: RXF 393 renal
[8] = system: IGROV1 ovarian
[9] = system: HCC-2998 colon
[10] = system: SNB-75 CNS

| Compound | TGI [1] | TGI [2] | TGI [3] | TGI [4] | TGI [5] | TGI [6] | TGI [7] | TGI [8] | TGI [9] | TGI [10] |
| --- | --- | --- | --- | --- | --- | --- | --- | --- | --- | --- |
| O=c1oc2ccc(Cl)cc2cc1-c1cn2ccsc2n1 | > 100 µM | > 100 µM | > 100 µM | > 100 µM | > 100 µM | > 100 µM | > 100 µM | > 100 µM | > 100 µM | > 100 µM |
| Cc1ccc(S(=O)(=O)N/N=C2\C3CC4CC(C3)C2C4)cc1 (stereo not drawn) | > 100 µM | > 100 µM | > 100 µM | > 100 µM | > 100 µM | > 100 µM | > 100 µM | > 100 µM | > 100 µM | > 100 µM |
| Cn1c(=O)sc2cc(C(=S)N3CCOCC3)ccc21 | > 100 µM | > 100 µM | > 100 µM | > 100 µM | > 100 µM | > 100 µM | > 100 µM | > 100 µM | > 100 µM | > 95.3 µM |
| COC(=O)C(NC(=O)CSc1nnc(COc2ccc(Cl)cc2)n1-c1ccccc1)C(C)C (stereo not drawn) | 69.3 µM | 73 µM | 35.1 µM | 50.9 µM | 31.5 µM | 88.1 µM | 57.5 µM | 36.8 µM | 38.7 µM | 38.9 µM |
| O=C(/C=C/c1ccco1)c1cccc(C(=O)/C=C/c2ccco2)n1 | 31.8 µM | > 48.8 µM | > 58.6 µM | > 100 µM | > 100 µM | 5.37 µM | > 65.1 µM | 53.5 µM | > 100 µM | > 100 µM |
| CCN(CC)CCN(C)CCc1ccc(Br)cc1 | > 100 µM | > 100 µM | > 100 µM | > 100 µM | > 100 µM | > 100 µM | > 100 µM | > 100 µM | > 100 µM | > 100 µM |
| Cc1cc(S(=O)(=O)O)c(NC(=O)c2oc3cc(O)ccc3c(=O)c2C)cc1Cl | > 100 µM | > 100 µM | > 100 µM | > 100 µM | > 100 µM | > 100 µM | > 100 µM | > 100 µM | > 100 µM | > 100 µM |
| O=C1CC2(CCNCC2)C(=O)N1N1CCOCC1 | > 100 µM | > 100 µM | > 100 µM | > 100 µM | > 100 µM | > 100 µM | > 100 µM | > 100 µM | > 100 µM | > 100 µM |
| CCCNC(=O)CCC(C)[C@H]1CCC2C3C(C[C@H](OC(C)=O)[C@@]21C)[C@@]1(C)CCC2(C[C@H]1C[C@H]3OC(C)=O)OOC1(CCCCC1)OO2 (stereo partly drawn) | 3.54 µM | > 100 µM | 7.05 µM | 7.08 µM | 5.3 µM | 3.52 µM | 27.7 µM | 2.22 µM | > 43.3 µM | 6.86 µM |
| CC/C(Cl)=N\OC(=O)Nc1ccc(F)cc1F | 46.5 µM | > 56.6 µM | 33.1 µM | 33.3 µM | 31.9 µM | 6.57 µM | 27.7 µM | 31.9 µM | 36.7 µM | 47.1 µM |
| CC(C)=CCC[C@@H](C)c1c2[nH]c3ccccc3sc-2c(C)c(=O)c1=O | 41.9 µM | > 75 µM | 30.7 µM | > 75 µM | > 45.1 µM | > 29 µM | 32.7 µM | 26.3 µM | > 36.8 µM | > 43.3 µM |
| O=S(=O)(O)C1CCC(O)C2[N-]CCCC21.O=S(=O)(O)C1CCC(O)C2[N-]CCCC21.[Zn+2] (stereo not drawn) |  | > 100 µM | > 100 µM | > 100 µM | > 100 µM | > 100 µM | > 100 µM | > 100 µM | > 100 µM | > 100 µM |
| CC1(C)[C@@H]2CC[C@@]1(C)[C@H](O)[C@@H]2SCc1ccccc1 | 29.1 µM | 31.7 µM | 33.7 µM | 50.4 µM | 31.8 µM | 36.6 µM | 33 µM | 37.4 µM | 36.6 µM | 49.1 µM |
| CCCCCCCCCCCCCCCCOCC(Cl)COP(=O)(O)OP(=O)(O)OCC1OC(n2cnc3c(N)ncnc32)C(O)C1O (stereo not drawn) | > 100 µM | > 100 µM | > 100 µM | 96.8 µM | > 100 µM | > 100 µM | > 100 µM | > 100 µM | > 100 µM | 89.7 µM |
| CC1=C2NCN(C)N=C2C(C#N)(C#N)C1(C#N)C#N | 21.4 µM | > 95.2 µM | > 100 µM | 72.8 µM | 66.8 µM | > 54.4 µM | 42.7 µM | > 63 µM | 44.4 µM | > 87.9 µM |
| Cc1ccc2c(c1)CC1(C2=O)[C@H](c2ccccc2)C2C(=O)c3ccc(C)cc3C2[C@H]1c1ccccc1 (stereo partly drawn) | > 100 µM | > 100 µM |  | > 100 µM | > 100 µM | > 100 µM | > 100 µM | > 100 µM | > 100 µM | > 100 µM |
| CC(C)(C)c1ccc(-c2nnc(-c3cc(C#N)cc(-c4nnc(-c5ccc(C(C)(C)C)cc5)o4)c3)o2)cc1 | > 100 µM | > 100 µM | > 100 µM | > 100 µM | > 100 µM | > 100 µM | 96.9 µM | > 100 µM | > 100 µM | > 100 µM |
| Cc1ccc(/C=C2\CN(C)CC3C2=NC(=S)NC3c2ccc(C)cc2)cc1 (stereo not drawn) | > 100 µM | > 100 µM | > 100 µM | > 100 µM | > 100 µM | > 100 µM | > 87.1 µM | > 80.1 µM | 33.4 µM | > 100 µM |
